# Test results as given in PubChem BioAssay AID1918999 (Molecular Pharmacology Branch, DTP, NCI, 2023).
# Test system: 556581-035-R-J1-PDC complex spheroid growth
# Test: Anticancer human tumor 556581-035-R-J1-PDC patient-derived ovarian carcinoma cell line growth inhibition [AhR]
# Conditions: for IC50: curve of first compound; for viability, T/C: stronger effect = lower value
# In short: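 Agents were dosed in half-log steps down from roughly clinical Cmax, or from 10 microM where Cmax was unknown, alone and with AhR antagonists. Read-out: percent test/control growth of tumor spheroids containing HUVEC and MSC stromal cells.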
# [1] = second compound 0.1 µM, first compound 0.0316 µM
# [2] = second compound 0.1 µM, first compound 0.1 µM
# [3] = second compound 0.1 µM, first compound 0.316 µM
# [4] = second compound 0.1 µM, first compound 1 µM
# [5] = second compound 0.1 µM, first compound 3.16 µM
# [6] = second compound 0.1 µM, first compound 10 µM
# [7] = second compound 0.316 µM, first compound 0.0316 µM
# [8] = second compound 0.316 µM, first compound 0.1 µM
# [9] = second compound 0.316 µM, first compound 0.316 µM
# [10] = second compound 0.316 µM, first compound 1 µM
# [11] = second compound 0.316 µM, first compound 3.16 µM
# [12] = second compound 0.316 µM, first compound 10 µM
# [13] = second compound 1 µM, first compound 0.0316 µM
# [14] = second compound 1 µM, first compound 0.1 µM
# [15] = second compound 1 µM, first compound 0.316 µM
# [16] = second compound 1 µM, first compound 1 µM
# [17] = second compound 1 µM, first compound 3.16 µM
# [18] = second compound 1 µM, first compound 10 µM
# [19] = second compound 3.16 µM, first compound 0.0316 µM
# [20] = second compound 3.16 µM, first compound 0.1 µM
# [21] = second compound 3.16 µM, first compound 0.316 µM
# [22] = second compound 3.16 µM, first compound 1 µM
# [23] = second compound 3.16 µM, first compound 3.16 µM
# [24] = second compound 3.16 µM, first compound 10 µM
# [25] = second compound 10 µM, first compound 0.0316 µM
# [26] = second compound 10 µM, first compound 0.1 µM
# [27] = second compound 10 µM, first compound 0.316 µM
# [28] = second compound 10 µM, first compound 1 µM
# [29] = second compound 10 µM, first compound 3.16 µM
# [30] = second compound 10 µM, first compound 10 µM
# [31] = second compound 0.1 µM, first compound 0.00949 µM
# [32] = second compound 0.1 µM, first compound 0.03 µM
# [33] = second compound 0.1 µM, first compound 0.0949 µM
# [34] = second compound 0.1 µM, first compound 0.3 µM
# [35] = second compound 0.316 µM, first compound 0.00949 µM
# [36] = second compound 0.316 µM, first compound 0.03 µM
# [37] = second compound 0.316 µM, first compound 0.0949 µM
# [38] = second compound 0.316 µM, first compound 0.3 µM
# [39] = second compound 1 µM, first compound 0.00949 µM
# [40] = second compound 1 µM, first compound 0.03 µM
# [41] = second compound 1 µM, first compound 0.0949 µM
# [42] = second compound 1 µM, first compound 0.3 µM
# [43] = second compound 3.16 µM, first compound 0.00949 µM
# [44] = second compound 3.16 µM, first compound 0.03 µM
# [45] = second compound 3.16 µM, first compound 0.0949 µM
# [46] = second compound 3.16 µM, first compound 0.3 µM
# [47] = second compound 10 µM, first compound 0.00949 µM
# [48] = second compound 10 µM, first compound 0.03 µM
# [49] = second compound 10 µM, first compound 0.0949 µM
# [50] = second compound 10 µM, first compound 0.3 µM
# 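For viability, T/C in this document: compound exposure lasted 7 days; 100% = DMSO vehicle control growth.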
smiles,measurement,setting,value
CC1(C)CCC(CN2CCN(c3ccc(C(=O)NS(=O)(=O)c4ccc(NCC5CCOCC5)c([N+](=O)[O-])c4)c(Oc4cnc5[nH]ccc5c4)c3)CC2)=C(c2ccc(Cl)cc2)C1 + Cc1cncc(-c2nc(NCCc3c[nH]c4ccccc34)c3ncn(C(C)C)c3n2)c1,IC50,second compound 0.1 µM,> 10 µM
same,IC50,second compound 0.316 µM,> 10 µM
same,IC50,second compound 1 µM,> 10 µM
same,IC50,second compound 3.16 µM,> 10 µM
same,IC50,second compound 10 µM,> 10 µM
same,"viability, T/C",[1],104%
same,"viability, T/C",[2],98.6%
same,"viability, T/C",[3],102%
same,"viability, T/C",[4],91%
same,"viability, T/C",[5],93.1%
same,"viability, T/C",[6],77.5%
same,"viability, T/C",[7],95.6%
same,"viability, T/C",[8],98.2%
same,"viability, T/C",[9],102%
same,"viability, T/C",[10],95.1%
same,"viability, T/C",[11],96.3%
same,"viability, T/C",[12],72.3%
same,"viability, T/C",[13],105%
same,"viability, T/C",[14],99.9%
same,"viability, T/C",[15],101%
same,"viability, T/C",[16],91.5%
same,"viability, T/C",[17],85.6%
same,"viability, T/C",[18],76.9%
same,"viability, T/C",[19],95.2%
same,"viability, T/C",[20],101%
same,"viability, T/C",[21],91%
same,"viability, T/C",[22],87.8%
same,"viability, T/C",[23],80.6%
same,"viability, T/C",[24],67.8%
same,"viability, T/C",[25],88.9%
same,"viability, T/C",[26],80.6%
same,"viability, T/C",[27],87.6%
same,"viability, T/C",[28],83.7%
same,"viability, T/C",[29],81.2%
same,"viability, T/C",[30],67.1%
CC1COCCN1c1cc(C2(S(C)(=N)=O)CC2)nc(-c2ccnc3[nH]ccc23)n1 (stereo not given) + Cc1cncc(-c2nc(NCCc3c[nH]c4ccccc34)c3ncn(C(C)C)c3n2)c1,IC50,second compound 0.1 µM,> 10 µM
same,IC50,second compound 0.316 µM,> 10 µM
same,IC50,second compound 1 µM,> 10 µM
same,IC50,second compound 3.16 µM,> 10 µM
same,IC50,second compound 10 µM,> 10 µM
same,"viability, T/C",[1],103%
same,"viability, T/C",[2],104%
same,"viability, T/C",[3],92.2%
same,"viability, T/C",[4],93.3%
same,"viability, T/C",[5],73.5%
same,"viability, T/C",[6],67.4%
same,"viability, T/C",[7],99%
same,"viability, T/C",[8],97.9%
same,"viability, T/C",[9],99.4%
same,"viability, T/C",[10],95.4%
same,"viability, T/C",[11],82.5%
same,"viability, T/C",[12],68.9%
same,"viability, T/C",[13],101%
same,"viability, T/C",[14],106%
same,"viability, T/C",[15],102%
same,"viability, T/C",[16],94.7%
same,"viability, T/C",[17],85%
same,"viability, T/C",[18],67.3%
same,"viability, T/C",[19],111%
same,"viability, T/C",[20],103%
same,"viability, T/C",[21],92.2%
same,"viability, T/C",[22],99.2%
same,"viability, T/C",[23],74.2%
same,"viability, T/C",[24],78.2%
same,"viability, T/C",[25],80.4%
same,"viability, T/C",[26],90.1%
same,"viability, T/C",[27],80.7%
same,"viability, T/C",[28],90.9%
same,"viability, T/C",[29],79.5%
same,"viability, T/C",[30],63.8%
CCN(c1cc(-c2ccc(CN3CCOCC3)cc2)cc(C(=O)NCc2c(C)cc(C)[nH]c2=O)c1C)C1CCOCC1 + Cc1cncc(-c2nc(NCCc3c[nH]c4ccccc34)c3ncn(C(C)C)c3n2)c1,IC50,second compound 0.1 µM,> 3 µM
same,IC50,second compound 0.316 µM,> 3 µM
same,IC50,second compound 1 µM,> 3 µM
same,IC50,second compound 3.16 µM,> 3 µM
same,IC50,second compound 10 µM,2.23 µM
same,"viability, T/C",[31],97.7%
same,"viability, T/C",[32],109%
same,"viability, T/C",[33],96.2%
same,"viability, T/C",[34],102%
same,"viability, T/C","second compound 0.1 µM, first compound 0.949 µM",102%
same,"viability, T/C","second compound 0.1 µM, first compound 3 µM",100%
same,"viability, T/C",[35],98%
same,"viability, T/C",[36],96.2%
same,"viability, T/C",[37],102%
same,"viability, T/C",[38],101%
same,"viability, T/C","second compound 0.316 µM, first compound 0.949 µM",99.5%
same,"viability, T/C","second compound 0.316 µM, first compound 3 µM",104%
same,"viability, T/C",[39],104%
same,"viability, T/C",[40],118%
same,"viability, T/C",[41],112%
same,"viability, T/C",[42],94.9%
same,"viability, T/C","second compound 1 µM, first compound 0.949 µM",88.2%
same,"viability, T/C","second compound 1 µM, first compound 3 µM",92.3%
same,"viability, T/C",[43],86.4%
same,"viability, T/C",[44],99.3%
same,"viability, T/C",[45],101%
same,"viability, T/C",[46],88.6%
same,"viability, T/C","second compound 3.16 µM, first compound 0.949 µM",92.1%
same,"viability, T/C","second compound 3.16 µM, first compound 3 µM",92.2%
same,"viability, T/C",[47],84.4%
same,"viability, T/C",[48],83.8%
same,"viability, T/C",[49],83.3%
same,"viability, T/C",[50],69.6%
same,"viability, T/C","second compound 10 µM, first compound 0.949 µM",66.5%
same,"viability, T/C","second compound 10 µM, first compound 3 µM",44.3%
Nc1ncn(C2CC(O)C(CO)S2)c(=O)n1 (stereo not given) + Cc1cncc(-c2nc(NCCc3c[nH]c4ccccc34)c3ncn(C(C)C)c3n2)c1,IC50,second compound 0.1 µM,> 0.3 µM
same,IC50,second compound 0.316 µM,> 0.3 µM
same,IC50,second compound 1 µM,> 0.3 µM
same,IC50,second compound 3.16 µM,> 0.3 µM
same,IC50,second compound 10 µM,> 0.3 µM
same,"viability, T/C","second compound 0.1 µM, first compound 0.000949 µM",99.3%
same,"viability, T/C","second compound 0.1 µM, first compound 0.003 µM",102%
same,"viability, T/C",[31],88.9%
same,"viability, T/C",[32],93.8%
same,"viability, T/C",[33],82%
same,"viability, T/C",[34],67.3%
same,"viability, T/C","second compound 0.316 µM, first compound 0.000949 µM",113%
same,"viability, T/C","second compound 0.316 µM, first compound 0.003 µM",109%
same,"viability, T/C",[35],111%
same,"viability, T/C",[36],93.2%
same,"viability, T/C",[37],81%
same,"viability, T/C",[38],68%
same,"viability, T/C","second compound 1 µM, first compound 0.000949 µM",116%
same,"viability, T/C","second compound 1 µM, first compound 0.003 µM",109%
same,"viability, T/C",[39],99.5%
same,"viability, T/C",[40],106%
same,"viability, T/C",[41],85.7%
same,"viability, T/C",[42],80.4%
same,"viability, T/C","second compound 3.16 µM, first compound 0.000949 µM",87.7%
same,"viability, T/C","second compound 3.16 µM, first compound 0.003 µM",84.8%
same,"viability, T/C",[43],95.8%
same,"viability, T/C",[44],94.3%
same,"viability, T/C",[45],79.5%
same,"viability, T/C",[46],72.9%
same,"viability, T/C","second compound 10 µM, first compound 0.000949 µM",84.7%
same,"viability, T/C","second compound 10 µM, first compound 0.003 µM",86.7%
same,"viability, T/C",[47],91.6%
same,"viability, T/C",[48],87.3%
same,"viability, T/C",[49],79.4%
same,"viability, T/C",[50],72.6%
